Experiments:
Assay type in all cases: cell-based
[1] = tested on: MCF-7 breast cancer cells; experiment: MCF-7 proliferation / cell viability assay; conditions: Homo sapiens, MCF7; MCF-7 proliferation with 0.1 nM 17-beta estradiol; read-out: IC50 (anti-proliferation)
Procedure: The Anti-Proliferative Activities of the Exemplary Compounds were Assessed by a Cell Viability Assay in MCF-7 Breast Cancer Cells
MCF-7 cells were plated in six-well plates at a density of 50,000 each well in 5% FBS DMEM medium. The cells were then treated with exemplary compounds or fulvestrant separately at 6 different doses ranging from 10^−10 M to 10^−5 M for 5 days, while equal volumes of DMSO were used as vehicle controls. Viable cell numbers were counted with a Z Series Coulter Counter instrument (Beckman-Coulter) following manufacturer's instructions. The ratio of drug treated viable cell numbers to vehicle treated viable cell numbers was defined as survival ratio where the control has the survival ratio of 100%.

[2] = target: T1, ER (Homo sapiens, UniProt P03372); experiment: ER antagonism (T47D ERE luciferase), T47d-kb-Luc cells; conditions: read-out: IC50 (ER antagonistm)
T1 construct: endogenous in cells; host or cells: T47d-kb-Luc (T47D stably transfected with a luciferase reporter gene only)
T1 sequence (P03372 1-595): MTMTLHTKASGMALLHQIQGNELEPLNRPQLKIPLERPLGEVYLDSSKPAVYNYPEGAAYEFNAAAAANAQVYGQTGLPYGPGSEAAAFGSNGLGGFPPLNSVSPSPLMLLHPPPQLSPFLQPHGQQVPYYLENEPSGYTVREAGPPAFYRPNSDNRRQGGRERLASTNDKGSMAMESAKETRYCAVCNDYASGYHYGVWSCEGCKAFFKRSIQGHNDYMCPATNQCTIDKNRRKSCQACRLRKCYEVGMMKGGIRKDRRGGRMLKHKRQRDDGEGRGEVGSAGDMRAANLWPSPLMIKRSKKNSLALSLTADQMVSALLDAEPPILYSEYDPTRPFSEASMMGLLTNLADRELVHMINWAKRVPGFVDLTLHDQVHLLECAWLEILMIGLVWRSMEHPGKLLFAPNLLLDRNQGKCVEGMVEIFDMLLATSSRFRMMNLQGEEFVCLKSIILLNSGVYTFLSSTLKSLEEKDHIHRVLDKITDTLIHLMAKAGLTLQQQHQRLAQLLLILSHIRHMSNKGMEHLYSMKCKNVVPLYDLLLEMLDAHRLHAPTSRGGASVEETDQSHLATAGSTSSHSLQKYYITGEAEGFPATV
Procedure: The Antiestrogenic Activity of the Exemplary Compounds was Assessed in T47d-kb-Luc Stably Transfected Human Breast Cancer Cell
Antagonist activities were measured by the compound's ability to inhibit the activity of estradiol, the natural estrogen. Data were then normalized relative to the activity of the estradiol control and determinations were performed for five concentrations of the samples in quadruplicate in at least three separate experiments.

[3] = target: T2, ERα (Homo sapiens, UniProt P03372); experiment: ER degradation in MCF-7 cells (Western blot); conditions: for DC50: ER degradation, 24 hours; for Dmax: MCF7, Maximal ER degradation, read-out: Dmax
T2 construct: endogenous in cells; host or cells: MCF-7
T2 sequence (P03372 1-595): T1 sequence (P03372 1-595)
Procedure: Degradation of ER in MCF-7 Breast Cancer Cells by Exemplary Compounds of the Present Disclosure
MCF-7 cells were plated in 24-well plates at a density of 10^5 cells/well. Media containing various drug concentrations were added on the day following plating (day 0) and allowed to incubate for 24 hours for Western blot. Media with the tested compound was changed every other day. Cells were lysed, snapped frozen in liquid nitrogen, and stored at −80° C. until assay for ERα. Media were removed and dishes were washed with 1× DPBS. Lysates were made by adding 150 μL of complete lysis solution and scraping cells into a 1.5 mL microcentrifuge tube. Lysates were placed on a rotisserie at 4° C. for 30 min and then spun at 4° C. at 12000 rcf for 10 min. Supernatants were assayed for protein content, snap-frozen, and stored a −80° C. if not run immediately. Then 50 μg of protein was subjected to Western blot protocol. Membranes were blocked and then incubated with 1:200 dilution of ERα antibody at 4° C. overnight followed by 1:10000 dilution of secondary antibody for 1 h at room temperature. They were then imaged on a LICOR infrared scanner.
FIGS. 1 to 10 show the ER degradation efficacy of compounds 3, 5, 9, 11, 12, 16, 18, 19, 20, 21, 23, 24, 25, 26, 27, 28, 29, 30, 31, 32, 33, 34, 37, 38, and 40 in MCF-7 cells at various concentrations. Degradation of ER was expressed as an DC50 value and was determined for exemplary compounds in Table 1 by calculation of the concentration of compound that was required to give a 50% reduction of ER expression level. Maximal degradation of ER was expressed as a Dmax value by measuring the highest percentage of ER reduction achieved by exemplary compound in the treatment concentration range.

SMILES	IC50 [1] [nM]	IC50 [2] [nM]	DC50 [3] [nM]	Dmax [3] [%]
CC/C(=C(/c1ccc(B(O)O)cc1)c1ccc(N2CCC(CNC3CCN(c4ccc5c(c4)C(=O)N(C4CCC(=O)NC4=O)C5)CC3)CC2)cc1)c1ccccc1 (stereo not shown) [Compound 14, (E)-(4-(1-(4-(4-(((1-(2-(2,6-dioxopiperidin-3-yl)-3-oxoisoindolin-5-yl)piperidin-4-yl)amino)methyl)piperidin-1-yl)phenyl)-2-phenylbut-1-en-1-yl)phenyl)boronic acid]	< 10	< 10	< 10	> 90
CC/C(=C(/c1ccc(OCCN2CCN(CCCNc3ccc4c(c3)C(=O)N(C3CCC(=O)NC3=O)C4=O)CC2)cc1)c1ccc(B(O)O)cc1)c1ccccc1 (stereo not shown) [Compound 15, (Z)-(4-(1-(4-(2-(4-(3-((2-(2,6-dioxopiperidin-3-yl)-1,3-dioxoisoindolin-5-yl)amino)propyl)piperazin-1-yl)ethoxy)phenyl)-2-phenylbut-1-en-1-yl)phenyl)boronic acid]	10 to 50	10 to 50	10 to 50	> 75
CC/C(=C(\c1ccc(OCCN2CCN(CCCNc3ccc4c(c3)C(=O)N(C3CCC(=O)NC3=O)C4=O)CC2)cc1)c1ccc(B(O)O)cc1)c1ccccc1 (stereo not shown) [Compound 16, (E)-(4-(1-(4-(2-(4-(3-((2-(2,6-dioxopiperidin-3-yl)-1,3-dioxoisoindolin-5-yl)amino)propyl)piperazin-1-yl)ethoxy)phenyl)-2-phenylbut-1-en-1-yl)phenyl)boronic acid]	10 to 50	10 to 50	10 to 50	> 75
CC/C(=C(/c1ccc(OCCN2CCN(CC3CCN(c4ccc5c(c4)C(=O)N(C4CCC(=O)NC4=O)C5=O)CC3)CC2)cc1)c1ccc(B(O)O)cc1)c1ccccc1 (stereo not shown) [Compound 17, (Z)-(4-(1-(4-(2-(4-((1-(2-(2,6-dioxopiperidin-3-yl)-1,3-dioxoisoindolin-5-yl)piperidin-4-yl)methyl)piperazin-1-yl)ethoxy)phenyl)-2-phenylbut-1-en-1-yl)phenyl)boronic acid]	10 to 50	10 to 50	< 10	> 90
CC/C(=C(/c1ccc(OCCN2CCC(CN3CCN(c4ccc5c(c4)C(=O)N(C4CCC(=O)NC4=O)C5=O)CC3)CC2)cc1)c1ccc(B(O)O)cc1)c1ccccc1 (stereo not shown) [Compound 19, (Z)-(4-(1-(4-(2-(4-((4-(2-(2,6-dioxopiperidin-3-yl)-1,3-dioxoisoindolin-5-yl)piperazin-1-yl)methyl)piperidin-1-yl)ethoxy)phenyl)-2-phenylbut-1-en-1-yl)phenyl)boronic acid]	> 50	> 50	10 to 50	> 75
CC/C(=C(\c1ccc(OCCN2CCC(CN3CCN(c4ccc5c(c4)C(=O)N(C4CCC(=O)NC4=O)C5=O)CC3)CC2)cc1)c1ccc(B(O)O)cc1)c1ccccc1 (stereo not shown) [Compound 20, (E)-(4-(1-(4-(2-(4-((4-(2-(2,6-dioxopiperidin-3-yl)-1,3-dioxoisoindolin-5-yl)piperazin-1-yl)methyl)piperidin-1-yl)ethoxy)phenyl)-2-phenylbut-1-en-1-yl)phenyl)boronic acid]	> 50	> 50	10 to 50	> 75
CC/C(=C(/c1ccc(OCCN2CCN(CC3CCN(c4ccc5c(c4)CN(C4CCC(=O)NC4=O)C5=O)CC3)CC2)cc1)c1ccc(B(O)O)cc1)c1ccccc1 (stereo not shown) [Compound 21, (Z)-(4-(1-(4-(2-(4-((1-(2-(2,6-dioxopiperidin-3-yl)-1-oxoisoindolin-5-yl)piperidin-4-yl)methyl)piperazin-1-yl)ethoxy)phenyl)-2-phenylbut-1-en-1-yl)phenyl)boronic acid]	< 10	< 10	< 10	> 90
CC/C(=C(\c1ccc(OCCN2CCN(CC3CCN(c4ccc5c(c4)CN(C4CCC(=O)NC4=O)C5=O)CC3)CC2)cc1)c1ccc(B(O)O)cc1)c1ccccc1 (stereo not shown) [Compound 22, (E)-(4-(1-(4-(2-(4-((1-(2-(2,6-dioxopiperidin-3-yl)-1-oxoisoindolin-5-yl)piperidin-4-yl)methyl)piperazin-1-yl)ethoxy)phenyl)-2-phenylbut-1-en-1-yl)phenyl)boronic acid]	< 10	< 10	< 10	> 90
CC/C(=C(/c1ccc(OCCN2CCN(CCN3CCN(c4ccc5c(c4)C(=O)N(C4CCC(=O)NC4=O)C5=O)CC3)CC2)cc1)c1ccc(B(O)O)cc1)c1ccccc1 (stereo not shown) [Compound 23, (Z)-(4-(1-(4-(2-(4-(2-(4-(2-(2,6-dioxopiperidin-3-yl)-1,3-dioxoisoindolin-5-yl)piperazin-1-yl)ethyl)piperazin-1-yl)ethoxy)phenyl)-2-phenylbut-1-en-1-yl)phenyl)boronic acid]	10 to 50	10 to 50	< 10	> 90
CC/C(=C(\c1ccc(OCCN2CCN(CCN3CCN(c4ccc5c(c4)C(=O)N(C4CCC(=O)NC4=O)C5=O)CC3)CC2)cc1)c1ccc(B(O)O)cc1)c1ccccc1 (stereo not shown) [Compound 24]	10 to 50	10 to 50	< 10	> 90
CC/C(=C(\c1ccc(OCCN2CCN(CCC3CCN(c4ccc5c(c4)C(=O)N(C4CCC(=O)NC4=O)C5=O)CC3)CC2)cc1)c1ccc(B(O)O)cc1)c1ccccc1 (stereo not shown) [Compound 26, (E)-(4-(1-(4-(2-(4-(2-(1-(2-(2,6-dioxopiperidin-3-yl)-1,3-dioxoisoindolin-5-yl)piperidin-4-yl)ethyl)piperazin-1-yl)ethoxy)phenyl)-2-phenylbut-1-en-1-yl)phenyl)boronic acid]	10 to 50	10 to 50	< 10	> 90
CC/C(=C(/c1ccc(OCCN2CCC(CCN3CCN(c4ccc5c(c4)C(=O)N(C4CCC(=O)NC4=O)C5=O)CC3)CC2)cc1)c1ccc(B(O)O)cc1)c1ccccc1 (stereo not shown) [Compound 27, (Z)-(4-(1-(4-(2-(4-(2-(4-(2-(2,6-dioxopiperidin-3-yl)-1,3-dioxoisoindolin-5-yl)piperazin-1-yl)ethyl)piperidin-1-yl)ethoxy)phenyl)-2-phenylbut-1-en-1-yl)phenyl)boronic acid]	10 to 50	> 50	< 10	> 90
CC/C(=C(\c1ccc(OCCN2CCC(CCN3CCN(c4ccc5c(c4)C(=O)N(C4CCC(=O)NC4=O)C5=O)CC3)CC2)cc1)c1ccc(B(O)O)cc1)c1ccccc1 (stereo not shown) [Compound 28, (E)-(4-(1-(4-(2-(4-(2-(4-(2-(2,6-dioxopiperidin-3-yl)-1,3-dioxoisoindolin-5-yl)piperazin-1-yl)ethyl)piperidin-1-yl)ethoxy)phenyl)-2-phenylbut-1-en-1-yl)phenyl)boronic acid]	10 to 50	> 50	< 10	> 90

Reference: patent publication US20220348595A1, “COMPOUNDS AND METHODS FOR THE TARGETED DEGRADATION OF ESTROGEN RECEPTORS” (Endotarget Inc., priority 2021, published 2022)
